Measured values: PubChem BioAssay AID248 (DTP/NCI, 2004)
Where “and” joins values, the source holds several entries; their conditions need not be identical. Equal values may be shown once. Inconclusive results and toxic doses are left out. Rule as the data show it: active = T/C of 150% or more; inactive = T/C below 125%.

System: L1210 leukemia ip in BDF1 mice, survival T/C
Assay: NCI In Vivo Anticancer Drug Screen. Data for tumor model L1210 Leukemia (intraperitoneal) in B6D2F1 (BDF1) mice
Details: higher = longer survival
Summary of the method: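 Value reflects the ratio of survival in compound-treated mice to survival in vehicle-treated controls, with both groups carrying the same transplanted tumor.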

[1] = endpoint: mean survival time, dose: 50.0 mg/kg/injection, schedule: Q01DX009 (ip), vehicle: saline with Tween-80
[2] = endpoint: mean survival time, dose: 100.0 mg/kg/injection, schedule: Q01DX009 (ip), vehicle: saline with Tween-80
[3] = endpoint: mean survival time, dose: 200.0 mg/kg/injection, schedule: Q01DX009 (ip), vehicle: saline with Tween-80

Measured: T/C

C[C@]12C=CC(=O)C=C1CC[C@@H]1[C@@H]2C(=O)C[C@@]2(C)[C@H]1CC[C@]2(O)C(=O)CO
inactive: endpoint: mean survival time, dose: 0.25 mg/kg/injection, schedule: Q01DX009 (ip), vehicle: water 99 % of control | endpoint: mean survival time, dose: 0.5 mg/kg/injection, schedule: Q01DX009 (ip), vehicle: water 103 % of control | endpoint: mean survival time, dose: 1.0 mg/kg/injection, schedule: Q01DX009 (ip), vehicle: water 96 % of control and 97 % of control | endpoint: mean survival time, dose: 2.0 mg/kg/injection, schedule: Q01DX009 (ip), vehicle: water 99 % of control and 101 % of control | endpoint: mean survival time, dose: 2.5 mg/kg/injection, schedule: Q01DX009 (ip), vehicle: water 101 % of control | endpoint: mean survival time, dose: 5.0 mg/kg/injection, schedule: Q01DX009 (ip), vehicle: water 104 % of control | endpoint: mean survival time, dose: 6.25 mg/kg/injection, schedule: Q01DX014 (sc), vehicle: steriod suspending solution 103 % of control and 104 % of control | endpoint: mean survival time, dose: 12.5 mg/kg/injection, schedule: Q01DX014 (sc), vehicle: steriod suspending solution 100 % of control and 109 % of control | endpoint: mean survival time, dose: 25.0 mg/kg/injection, schedule: Q01DX014 (sc), vehicle: steriod suspending solution 103 % of control and 105 % of control | endpoint: mean survival time, dose: 25.0 mg/kg/injection, schedule: Q01DX Z (sc), vehicle: steriod suspending solution 97 % of control and 102 % of control and 108 % of control | [1] 102 % of control | endpoint: mean survival time, dose: 50.0 mg/kg/injection, schedule: Q01DX Z (sc), vehicle: steriod suspending solution 100 % of control (2×) and 112 % of control | endpoint: mean survival time, dose: 100.0 mg/kg/injection, schedule: Q01DX009 (ip), vehicle: Klucel (hydroxypropylcellulose) (HPC) 107 % of control | [2] 97 % of control | endpoint: mean survival time, dose: 100.0 mg/kg/injection, schedule: Q01DX009 (ip), vehicle: saline 100 % of control | endpoint: mean survival time, dose: 100.0 mg/kg/injection, schedule: Q01DX009 (ip), vehicle: steriod suspending solution 104 % of control | endpoint: mean survival time, dose: 100.0 mg/kg/injection, schedule: Q01DX009 (sc), vehicle: Klucel (hydroxypropylcellulose) (HPC) 91 % of control | endpoint: mean survival time, dose: 100.0 mg/kg/injection, schedule: Q01DX009 (sc), vehicle: saline 97 % of control | endpoint: mean survival time, dose: 100.0 mg/kg/injection, schedule: Q01DX009 (sc), vehicle: steriod suspending solution 100 % of control | endpoint: mean survival time, dose: 100.0 mg/kg/injection, schedule: Q01DX Z (sc), vehicle: steriod suspending solution 98 % of control and 101 % of control | endpoint: mean survival time, dose: 100.0 mg/kg/injection, schedule: Q04DX003 (ip), vehicle: saline with Tween-80 106 % of control | endpoint: mean survival time, dose: 120.0 mg/kg/injection, schedule: Q01DX001 (sc), vehicle: steriod suspending solution 106 % of control | endpoint: mean survival time, dose: 180.0 mg/kg/injection, schedule: Q01DX001 (sc), vehicle: steriod suspending solution 107 % of control | endpoint: mean survival time, dose: 200.0 mg/kg/injection, schedule: Q01DX009 (ip), vehicle: Klucel (hydroxypropylcellulose) (HPC) 100 % of control | [3] 102 % of control | endpoint: mean survival time, dose: 200.0 mg/kg/injection, schedule: Q01DX009 (ip), vehicle: saline 104 % of control | endpoint: mean survival time, dose: 200.0 mg/kg/injection, schedule: Q01DX009 (ip), vehicle: steriod suspending solution 104 % of control | endpoint: mean survival time, dose: 200.0 mg/kg/injection, schedule: Q01DX009 (sc), vehicle: Klucel (hydroxypropylcellulose) (HPC) 110 % of control | endpoint: mean survival time, dose: 200.0 mg/kg/injection, schedule: Q01DX009 (sc), vehicle: saline 105 % of control | endpoint: mean survival time, dose: 200.0 mg/kg/injection, schedule: Q01DX009 (sc), vehicle: steriod suspending solution 102 % of control | endpoint: mean survival time, dose: 200.0 mg/kg/injection, schedule: Q01DX Z (sc), vehicle: steriod suspending solution 94 % of control and 96 % of control | endpoint: mean survival time, dose: 200.0 mg/kg/injection, schedule: Q04DX003 (ip), vehicle: saline with Tween-80 98 % of control | endpoint: mean survival time, dose: 240.0 mg/kg/injection, schedule: Q01DX001 (sc), vehicle: steriod suspending solution 104 % of control | endpoint: mean survival time, dose: 400.0 mg/kg/injection, schedule: Q01DX009 (ip), vehicle: Klucel (hydroxypropylcellulose) (HPC) 100 % of control | endpoint: mean survival time, dose: 400.0 mg/kg/injection, schedule: Q01DX009 (ip), vehicle: saline 101 % of control | endpoint: mean survival time, dose: 400.0 mg/kg/injection, schedule: Q01DX009 (ip), vehicle: steriod suspending solution 89 % of control | endpoint: mean survival time, dose: 400.0 mg/kg/injection, schedule: Q01DX009 (sc), vehicle: Klucel (hydroxypropylcellulose) (HPC) 97 % of control | endpoint: mean survival time, dose: 400.0 mg/kg/injection, schedule: Q01DX009 (sc), vehicle: saline 109 % of control | endpoint: mean survival time, dose: 400.0 mg/kg/injection, schedule: Q01DX009 (sc), vehicle: steriod suspending solution 96 % of control | endpoint: mean survival time, dose: 400.0 mg/kg/injection, schedule: Q01DX Z (sc), vehicle: steriod suspending solution 100 % of control | endpoint: mean survival time, dose: 400.0 mg/kg/injection, schedule: Q04DX003 (ip), vehicle: saline with Tween-80 104 % of control | endpoint: mean survival time, dose: 500.0 mg/kg/injection, schedule: Q01DX001 (ip), vehicle: water 98 % of control and 103 % of control | endpoint: mean survival time, dose: 800.0 mg/kg/injection, schedule: Q01DX009 (ip), vehicle: Klucel (hydroxypropylcellulose) (HPC) 105 % of control | endpoint: mean survival time, dose: 800.0 mg/kg/injection, schedule: Q01DX009 (ip), vehicle: saline 110 % of control | endpoint: mean survival time, dose: 800.0 mg/kg/injection, schedule: Q01DX009 (ip), vehicle: steriod suspending solution 95 % of control | endpoint: mean survival time, dose: 800.0 mg/kg/injection, schedule: Q01DX009 (sc), vehicle: Klucel (hydroxypropylcellulose) (HPC) 103 % of control | endpoint: mean survival time, dose: 800.0 mg/kg/injection, schedule: Q01DX009 (sc), vehicle: saline 104 % of control | endpoint: mean survival time, dose: 800.0 mg/kg/injection, schedule: Q01DX009 (sc), vehicle: steriod suspending solution 102 % of control | endpoint: mean survival time, dose: 1000.0 mg/kg/injection, schedule: Q01DX001 (ip), vehicle: water 97 % of control and 102 % of control | endpoint: mean survival time, dose: 2000.0 mg/kg/injection, schedule: Q01DX001 (ip), vehicle: water 96 % of control and 109 % of control | endpoint: median survival time, dose: 25.0 mg/kg/injection, schedule: Q01DX009 (ip), vehicle: water 100 % of control and 90 % of control | endpoint: median survival time, dose: 50.0 mg/kg/injection, schedule: Q01DX009 (ip), vehicle: water 95 % of control and 100 % of control | endpoint: median survival time, dose: 100.0 mg/kg/injection, schedule: Q01DX009 (ip), vehicle: water 95 % of control and 100 % of control | endpoint: median survival time, dose: 108.0 mg/kg/injection, schedule: Q01DX009 (ip), vehicle: water 100 % of control and 90 % of control | endpoint: median survival time, dose: 180.0 mg/kg/injection, schedule: Q01DX009 (ip), vehicle: water 95 % of control and 90 % of control | endpoint: median survival time, dose: 200.0 mg/kg/injection, schedule: Q01DX009 (ip), vehicle: water 95 % of control and 100 % of control | endpoint: median survival time, dose: 300.0 mg/kg/injection, schedule: Q01DX009 (ip), vehicle: water 100 % of control | endpoint: median survival time, dose: 375.0 mg/kg/injection, schedule: Q01DX001 (ip), vehicle: water 100 % of control | endpoint: median survival time, dose: 400.0 mg/kg/injection, schedule: Q01DX009 (ip), vehicle: water 95 % of control and 110 % of control | endpoint: median survival time, dose: 400.0 mg/kg/injection, schedule: Q04DX003 (ip), vehicle: saline 111 % of control | endpoint: median survival time, dose: 500.0 mg/kg/injection, schedule: Q01DX009 (ip), vehicle: water 90 % of control | endpoint: median survival time, dose: 600.0 mg/kg/injection, schedule: Q04DX003 (ip), vehicle: saline 104 % of control | endpoint: median survival time, dose: 750.0 mg/kg/injection, schedule: Q01DX001 (ip), vehicle: water 100 % of control | endpoint: median survival time, dose: 800.0 mg/kg/injection, schedule: Q01DX009 (ip), vehicle: water 100 % of control | endpoint: median survival time, dose: 833.0 mg/kg/injection, schedule: Q01DX009 (ip), vehicle: water 90 % of control | endpoint: median survival time, dose: 1388.0 mg/kg/injection, schedule: Q01DX009 (ip), vehicle: water 90 % of control | endpoint: median survival time, dose: 1500.0 mg/kg/injection, schedule: Q01DX001 (ip), vehicle: water 100 % of control | endpoint: median survival time, dose: 3000.0 mg/kg/injection, schedule: Q01DX001 (ip), vehicle: water 100 % of control and 102 % of control

CN(CC(=O)O)C(=O)c1ccccc1
inactive: endpoint: mean survival time, dose: 75.0 mg/kg/injection, schedule: Q01DX001 (ip), vehicle: saline 96 % of control | endpoint: mean survival time, dose: 150.0 mg/kg/injection, schedule: Q01DX001 (ip), vehicle: saline 96 % of control

CC1(N)COP(=O)(Nc2ccccc2)OC1 (centres undefined)
inactive: endpoint: mean survival time, dose: 44.4 mg/kg/injection, schedule: Q01DX001 (ip), vehicle: carboxymethylcellulose (CMC) 101 % of control | endpoint: mean survival time, dose: 66.7 mg/kg/injection, schedule: Q01DX001 (ip), vehicle: carboxymethylcellulose (CMC) 101 % of control | endpoint: mean survival time, dose: 150.0 mg/kg/injection, schedule: Q01DX001 (ip), vehicle: carboxymethylcellulose (CMC) 107 % of control | endpoint: mean survival time, dose: 200.0 mg/kg/injection, schedule: Q01DX001 (ip), vehicle: carboxymethylcellulose (CMC) 92 % of control | endpoint: mean survival time, dose: 400.0 mg/kg/injection, schedule: Q01DX001 (ip), vehicle: carboxymethylcellulose (CMC) 103 % of control

CCCCCCCC(=O)CCCCC
inactive: [2] 102 % of control | endpoint: mean survival time, dose: 100.0 mg/kg/injection, schedule: Q04DX003 (ip), vehicle: saline 98 % of control | [3] 109 % of control | endpoint: mean survival time, dose: 200.0 mg/kg/injection, schedule: Q04DX003 (ip), vehicle: saline 96 % of control | endpoint: mean survival time, dose: 400.0 mg/kg/injection, schedule: Q01DX009 (ip), vehicle: saline with Tween-80 100 % of control | endpoint: mean survival time, dose: 400.0 mg/kg/injection, schedule: Q04DX003 (ip), vehicle: saline 93 % of control

CCOC(=O)CCC(C)Br (centres undefined)
inactive: [1] 97 % of control | [2] 101 % of control | [3] 108 % of control
